Consider twelve molecules from article PMC2848589, “Raltegravir Is a Potent Inhibitor of XMRV, a Virus Implicated in Prostate Cancer and Chronic Fatigue Syndrome” (PLoS ONE, 2010).

pEC50: −log10 of the molar value. Like-named read-outs stand apart in the source and are kept apart here. Some results are limits rather than exact numbers.

The nature of series [1]: Cytotoxicity in PBM cells. The format is cell-based. Conditions: human, peripheral blood mononuclear (PBM) cells, read-out: HIV-1 in PBM cells CC50. How it is done:
(§1) Each well was carefully monitored for signs of cellular toxicity due to the inhibitors by microscopic observation every 24 h. In addition, cell viability was measured using the CellTiter 96 AQueous One Solution cell proliferation assay according to the manufacturer (Promega, Madison, Wis). Viral release from the cells was assayed by measuring RT activity in the supernatant. For this, supernatant from each well was collected every 24 h and frozen at −20°C until it was analyzed by RT assay for viral release as described previously. In brief, oligo(dT)·poly(rA) primer-template assays were performed in the presence of radiolabeled [α-^32P]dTTP and Mn^2+. After incubating the viral supernatants with the RT reaction mix for 1 h at 37°C, samples were spotted onto DE81 DEAE cellulose paper (Whatman) and unincorporated label washed away with 2× SSC (1× SSC = 0.15 M NaCl and 0.015 M sodium citrate). […] Inhibition of viral release as measured on day 6 after inoculation was averaged over 3–5 experiments and plotted. The antiviral EC50 and cytotoxic concentrations (CC50,) was determined from the concentration–response curve using the median effect method. HIV-1 replication assays were performed as described previously using peripheral blood mononuclear cells (PBMC) obtained from the American Red Cross, Atlanta, GA, that were stimulated with phytohemagglutinin (PHA) for 72 hr.

Series [2] in a line: Cytotoxicity in MCF-7 cells (MTT / CellTiter 96 AQueous One). Conditions: human. The format is cell-based, human. The protocol:
(§2) We tested a total of 45 compounds belonging to different classes of HIV-1 inhibitors, and a few inhibitors of viruses other than retroviruses, for their ability to inhibit XMRV replication in cultured cells. LNCaP and MCF-7 cells were chosen for their ability to support robust in vitro replication of XMRV. […] To determine if a reduction in viral release might be due to toxicity of the compound and not due to specific antiretroviral activity, cellular morphology was monitored every 24 h by microscopic examination, and an MTT [3-(4,5-dimethylthiazol-2-yl)-2,5-diphenyltetrazolium bromide] colorimetric assay was used to measure potential cytotoxicity produced by the compounds. Supernatants were collected every 24 h and assayed for viral release by measuring RT activity. […] For comparison purposes, all compounds evaluated in these studies were also tested against HIV-1LAI in primary human lymphocytes.
as §1

The subject of series [3] is HIV-1LAI. Put plainly: HIV-1 replication in PHA-stimulated peripheral blood mononuclear cells. It counts as cell-based. Conditions: Human immunodeficiency virus 1, PBMC; for pEC50: read-out: HIV-1 in PBM cells EC50; for EC90: read-out: HIV-1 in PBM cells EC90. How it is done:
as §2, §1

Series [4] deals with XMRV. Put plainly: XMRV replication in MCF-7 cells (viral release by RT activity in supernatant). It counts as cell-based. Particulars: for pEC50 / EC90: MCF7, 144 h; for pEC50: read-out: XMRV in MCF-7 cells EC50; for EC90: read-out: XMRV in MCF-7 cells EC90; for activity against XMRV (in words): tested up to 100 µM, Figure 1.
The mark [5] stands for this setting: MCF-7 cells, read-out: XMRV in MCF-7 cells CC50.
Where [6] appears, read: XMRV-infected MCF-7 cells, RT activity in supernatant, day 6.

For `O=c1[nH]c(=O)n([C@H]2C[C@H](O)[C@@H](CO)O2)cc1I` [5-Iodo-2'-deoxyuridine (IdUrd), 5-Iodo-2'-deoxyuridine], the figures for the CC50 in series [1] and in series [2] were 85.1 µM and 7.3 µM, respectively. The pEC50 was 4.60 in series [3] and 5.66 in series [4]. The EC90 in series [3] is 38.9 µM; in series [4] it was over 100 µM. Also, the “therapeutic index (TI, the ratio of CC50/EC50)” value in series [4] (XMRV, MCF-7 cells) is recorded as “low”.

On to `Nc1nc(NC2CC2)c2ncn([C@H]3C=C[C@@H](CO)C3)c2n1` [Abacavir], for which the CC50 in series [1] turned out to be 92.9 µM; in series [2] (setting [5]), 92.6 µM. In addition, the pEC50 is 6.77 in series [3] and under 4.00 in series [4]. Also, the figures for the EC90 in series [3] and in series [4] were 1.7 µM and over 100 µM, respectively.

With `Nc1nc2c(ncn2COCCO)c(=O)[nH]1` [Acyclovir (ACV), Acyclovir], the results for the CC50 in series [1] and in series [2] were over 100 µM and 77.6 µM, respectively. Further, the negative logarithm of the EC50 (pEC50) in series [3] and in series [4] was under 4.00 throughout. In addition, the EC90 in series [3] and in series [4] was over 100 µM in each case.

For the molecule `Nc1nc(N)c2ncn([C@H]3CO[C@@H](CO)O3)c2n1` [Amdoxovir (DAPD, AMDX), Amdoxovir], the CC50 in series [1] and in series [2] (setting [5]) was over 100 µM in each case. Besides, the pEC50 in series [3] is 6.08; in series [4], under 4.00. The EC90 in series [3] was 4.8 µM; in series [4], over 100 µM. Further, in series [4], the “activity against XMRV (in words)” value was “essentially inactive”.

On to `CC(C)CN(C[C@@H](O)[C@H](Cc1ccccc1)NC(=O)O[C@H]1CCOC1)S(=O)(=O)c1ccc(N)cc1` [Amprenavir], for which the values for the CC50 in series [1] and in series [2] (setting [5]) were over 100 µM and 94.1 µM, respectively. Also, the figures for the pEC50 in series [3] and in series [4] (setting [6]) were 7.57 and 4.17, respectively. Also, the EC90 was 0.1 µM in series [3] and over 100 µM in series [4].

For the molecule `CC(=O)Oc1ccccc1C(=O)O` [Aspirin], the results for the CC50 in series [1] and in series [2] (setting [5]) were over 100 µM and 92.2 µM, respectively. Also, the pEC50 in series [3] and in series [4] was under 4.00 throughout. Moreover, the EC90 in series [3] and in series [4] was over 100 µM throughout.

Take `COC(=O)N[C@H](C(=O)N[C@@H](Cc1ccccc1)[C@@H](O)CN(Cc1ccc(-c2ccccn2)cc1)NC(=O)[C@@H](NC(=O)OC)C(C)(C)C)C(C)(C)C` [Atazanavir]: the CC50 in series [1] came out at 27.2 µM; in series [2] (setting [5]), 40.7 µM. Besides, the negative logarithm of the EC50 (pEC50) was 8.17 in series [3] and 4.19 in series [4] (setting [6]). Moreover, the 90% effect concentration (EC90) in series [3] is 0.022 µM; in series [4] it was over 100 µM.

In turn, `CC(O)(CS(=O)(=O)c1ccc(F)cc1)C(=O)Nc1ccc(C#N)c(C(F)(F)F)c1` (stereo not shown) [Bicalutamide] registered a CC50 in series [2] of 8.2 µM. In series [4], the pEC50 is 4.28 and the EC90 worked out at 63.2 µM.

With `CCN(CC)CCCC(C)Nc1ccnc2cc(Cl)ccc12` (stereo not shown) [Chloroquine], in series [3], the pEC50 is 5.05 and the EC90 came to 21.6 µM. In series [4], the pEC50 is 4.24 and the EC90 is over 100 µM.

With `CC(C)CN(C[C@@H](O)[C@H](Cc1ccccc1)NC(=O)O[C@H]1CO[C@H]2OCC[C@H]21)S(=O)(=O)c1ccc(N)cc1` [Darunavir], in series [3], the pEC50 is 8.44 and the EC90 was 0.0065 µM. In series [4], the pEC50 is under 4.00, the EC90 is over 100 µM and the “activity against XMRV (in words)” value was “essentially ineffective”.

Regarding `CC(C)c1nc(CN(C)C(=O)N[C@H](C(=O)N[C@@H](Cc2ccccc2)C[C@H](O)[C@H](Cc2ccccc2)NC(=O)OCc2cncs2)C(C)C)cs1` [Ritonavir], the pEC50 in series [3] is 6.82; in series [4] (setting [6]), 4.12. For the same molecule, the results for the concentration for an effect of 90% (EC90) in series [3] and in series [4] were 0.4 µM and over 100 µM, respectively.

Consider `CC(C)=CCN1Cc2c(Cl)ccc3[nH]c(=S)n(c23)C[C@@H]1C` [TIBO analog, (4S)-8-Chloro-4-methyl-5-(3-methylbut-2-enyl)-3,4,5,6-tetrahydro-1H-[1], [3]diazepino[4,5,6-cd]indole-2(2aH)-thione], for which, in series [4], the “activity against XMRV (in words)” value is “did not demonstrate any major activity”.
